Patent US20260324636A1, “COMPOSITION FOR PROVIDING PLANT WITH STRESS RESISTANCE” (KIRIN HOLDINGS KABUSHIKI KAISHA, priority 2022, published 2026)

Columns and labels:
[1] = tested on: ZAT12; assay: ZAT12 gene expression by real-time PCR, Example 11; type: in vivo; details: Arabidopsis thaliana; 0.4 mM, 22° C. for 2 hours; read-out: ZAT12 expression level, increase vs control
Procedure: (§1) The materials as used in Example 1 were used.
The medium as used in Example 1 was used.
To the Arabidopsis thaliana plants grown for 7 days in the same manner as in Example 1, 0.4 mM N-acetylglutamic acid or an equivalent amount of sterile water was added, and the plants were incubated at 22° C. for 2 hours. After incubation for 2 hours, the samples were frozen with liquid nitrogen, and RNA was extracted using the RNeasy Plant Mini Kit […].
cDNA that would be necessary as a real-time PCR template was synthesized from the RNA obtained. 1000 ng total RNA was used for each sample, and cDNA was synthesized using the Verso cDNA Synthesis Kit (Thermo Fischer Scientific). The synthesized cDNA was diluted to 5-fold with sterile distilled water and subjected to real-time PCR. For real-time PCR, a reaction solution containing ZAT10 (AGI code: AT1G27730) and ZAT12 (AGI code: AT5G59820) as the target genes, PP2AA3 (AGI code: AT1G13320) as the reference gene, and TB Green Ex Taq II (TakaRa) was prepared. PCR was performed with the use of the LightCycler® 480 System (Roche) with the number of amplification cycles of 50. The primers shown below were used.
(§2) Thereafter, the relative expression levels of the target genes upon N-acetylglutamic acid treatment were calculated by the ΔΔCt method using the Cp values obtained by real-time PCR.

[2] = tested on: Arabidopsis thaliana; assay: High-temperature stress resistance in pot culture (fresh weight of aboveground part), Example 2; type: in vivo, Arabidopsis thaliana (Col-0); details: 0.5 mM in tap water, 37° C. for 5 days
Procedure: as §1
Jiffy-7 (42 mm diameter, Sakata Seed Corporation) was used as culture soil for pot culture. On Jiffy-7 prepared on the Disposable Tray DT-3 (AS ONE CORPORATION), a grain of Arabidopsis thaliana seeds was seeded and the plant was allowed to grow in an artificial climate chamber (Nippon Medical & Chemical Instruments Co., Ltd.) maintained at a temperature of 22° C. for a daily cycle of 16 hours light and 8 hours darkness.
On the third week after seeding, tap water (200 ml) containing 0.5 mM N-acetylglutamic acid was poured on the Disposable Tray. On the fourth week after seeding, the tray was transferred to an artificial climate chamber maintained at a temperature of 37° C. and subjected to the high-temperature treatment. When the tray was dried during the high-temperature treatment, tap water containing 0.5 mM N-acetylglutamic acid was added. The tray was removed from the artificial climate chamber 5 days after the initiation of the high-temperature treatment, and the weight of the aboveground part was measured.

[3] = tested on: rice; assay: Oxidation stress resistance against methyl viologen in rice (leaf chlorosis, chlorophyll content), Example 9; type: in vivo, rice (variety: Nipponbare); details: 0.5 mM, 2.5 μM methyl viologen, 30° C. 3 days
Procedure: A rice strain (the variety: Nipponbare) was used as an experimental material. Rice seeds were purchased from Nouken.
A Murashige and Skoog Plant Salt Mixture (2.2 g) was dissolved in 1 l of pure water, a pH was adjusted to 5.8, and the resultant was autoclaved (121° C., 20 minutes).
Seeds were sterilized by incubation with the use of a Kitchen Haiter® diluted to 2-fold with pure water for 20 minutes. The sterilized seeds were washed 3 times with sterile water, 30 grains of seeds were soaked in a 50-ml conical tube (Falcon) containing 10 ml of sterile water, and the seeds were cultured in an incubator maintained at 30° C. (16 hours light and 8 hours darkness) for 3 days to germinate the seeds.
After the seeds were incubated for 3 days, the growth medium was dispensed at 3 ml/well to the sterilized 12-well microplate (IWAKI), and the germinated seeds were seeded at 3 grains/well. To each well, 0.5 mM N-acetylglutamic acid or an equivalent amount of sterile water was added, and the seeds were incubated at 30° C. for 1 day. […]
Leaf chlorosis is observed in plants upon oxidation stress exposure. Thus, an extent of chlorosis was evaluated by measuring the content of the green pigment chlorophyll in leaves. […] The chlorophyll content was calculated in the same manner as in Example 1.

[4] = tested on: HAC12; assay: HAC12 gene expression by real-time PCR, Example 15; type: in vivo; details: Arabidopsis thaliana; 0.1 mM in medium, 2 hours after application, 22° C.; read-out: HAC12 expression level, increase vs group not subjected to the treatment
Procedure: The materials as used in Example 14 were used.
A liquid medium containing a ½ Murashige and Skoog Plant Salt Mixture (Nacalai) and 1 (w/v) % sucrose (FUJIFILM Wako) was used as a growth medium.
Arabidopsis thaliana seeds were sterilized with the use of a Kitchen Haiter® liquid (Kao Corporation) diluted to one-half concentration with distilled water for 3 minutes, washed 3 times with sterile distilled water, and then incubated at 4° C. overnight. The growth medium was dispensed at 1 ml/well on a 12-well microplate (IWAKI), 5 grains of the seeds were inoculated in each well, and the plate was transferred to the incubator (TOMY) to initiate growing. The incubator was maintained at a temperature of 22° C. for a daily cycle of 16 hours light and 8 hours darkness.
N-acetylglutamic acid was applied to Arabidopsis thaliana 7 days after inoculation to the final concentration of 0.1 mM in the medium, followed by incubation for 2 hours or 6 hours. The incubator was maintained at a temperature of 22° C. for a daily cycle of 16 hours light and 8 hours darkness. After incubation, the samples were frozen with liquid nitrogen, and RNA was extracted using the RNeasy Plant Mini Kit […]. […]
as §2

With CC(=O)N[C@@H](CCC(=O)O)C(=O)O [N-acetylglutamic acid] the fold induction at 400 µM [1] was 37, the “fresh weight of the aboveground part, increase relative to the control group” value [2] was 1.3 times and the “leaf chlorosis in MV-treated group” value [3] was “substantially no leaf chlorosis was observed”. The “chlorophyll content of the MV-treated groups” value ([3]; second leaf, fresh weight basis) was “increased” and the fold induction at 100 µM [4] was 1.3.
